Data as given in PMC8861642, “Cryo-electron microscopy reveals how acetogenins inhibit mitochondrial respiratory complex I” (The Journal of Biological Chemistry, 2022).
Read-outs that look alike come from different tables or passages of the source.

Experiments:
[1] = biological target: T1, mouse complex I (Mus musculus, UniProt P03888+Q91WD5+Q9DC70); test: NADH:DQ assay of purified compound 1-copurified mouse complex I, initial rates against control sample; type: biochemical; details: first 25 s, 5 μM DQ, 0.5 μg ml−1 AOX, 200 μM NADH; after copurification with 200 μM compound 1 and size-exclusion chromatography; SD, n = 3 technical repeats; read-out: inhibition of initial rates (proportion of complex I molecules containing the inhibitor)
T1 construct: hearts were obtained from C57BL/6 mice; from tissue; host or cells: heart mitochondria of C57BL/6 mice
Procedure: To better understand the mode of acetogenin binding to complex I, the inhibitor-bound enzyme was prepared for cryo-EM analysis. The acetogenin ortholog inhibitor selected for study here is compound 1; it contains a γ-lactone group, a 12-carbon aliphatic chain (linker) that connects the γ-lactone to a central hydroxylated bis-tetrahydrofuran (THF) group, and a final 10-carbon aliphatic extension (tail) (Figs. 1 and 2). […] Furthermore, substrates (NADH and decylubiquinone, DQ) were added alongside to stimulate complex I turnover, along with an alcohol dehydrogenase and an alternative oxidase for substrate regeneration, to ensure exposure of the high-affinity binding site that may only be present in specific intermediates. Excess compound 1, substrates, and regenerating enzymes were then removed by size-exclusion chromatography to eliminate nonspecifically bound inhibitor molecules. […]
After ∼5 min at 4 °C incubation, 20 μl of the mixture was removed as a control, and the remaining sample was added to glass vials containing enough dried compound 1, from an ethanol stock, to give a final 200 μM of compound 1, resuspended with gentle pipetting. […] The specific activity of the control [measured in 0.15% asolectin (20 % soy PC), 0.15% CHAPS, and 200 μM DQ] was 9.6 ± 0.4 μmol min^−1 mg^−1.

[2] = biological target: complex I (NADH:ubiquinone oxidoreductase) in bovine submitochondrial particles; details: internal bullatacin control, cited from earlier work
[3] = ref 33, read-out: IC50* (complex I inhibition)
[4] = ref 34, read-out: IC50† (complex I inhibition)

Row | Molecule | inhibition at 200 µM [1] | IC50 [2, 3] | IC50 [2, 4] | IC50† (complex I inhibition) ([2]; ref 34)
1 | CCCCCCCCCCC(O)C1CCC(C2CCC(C(O)CCCCCCCCCCCCC3=CC(C)OC3=O)O2)O1 (centres unmarked) [Compound 1] | 77 ± 5% | 1.3 nM | 1.3 ± 0.1 nM | –
2 | CCCCCCCCCCC(O)C1CCC(C2CCC(C(O)CCCCCCCCCCCCC3=CCOC3=O)O2)O1 (centres unmarked) [Compound 2] | – | 1.2 ± 0.1 nM | – | –
3 | CCCCCCCCCCC(O)C1CCC(C2CCC(C(O)CCCCCCCCCCCCC3=CCC(C)OC3=O)O2)O1 (centres unmarked) [Compound 3] | – | 1.3 ± 0.1 nM | – | –
4 | CCCCCCCCCCC(O)C1CCC(C2CCC(C(CCCCCCCCCCCCC3=CC(C)OC3=O)OC(C)=O)O2)O1 (centres unmarked) [Compound 7] | – | 2.1 nM | – | –
5 | CCCCCCCCCCC(OC(C)=O)C1CCC(C2CCC(C(CCCCCCCCCCCCC3=CC(C)OC3=O)OC(C)=O)O2)O1 (centres unmarked) [Compound 8] | – | 7.2 nM | – | –
6 | CC1C=C(CCCCCCCCCCCCC(O)C2CCC(C3CCC(C(O)CCCCCCCCCCCCC4=CC(C)OC4=O)O3)O2)C(=O)O1 (centres unmarked) [Compound 9] | – | – | 1.2 nM | –
7 | CC1C=C(CCCCCCCCCCCCC(O)C2CCC(C3CCC(C(O)CCCCCCCCCCCCC4=CC(C)OC4=O)O3)O2)C(=O)O1 (centres unmarked) [Compound 11] | – | – | 1.2 ± 0.2 nM | –
8 | CC(=O)OC(CCCCCCCCCCCCC1=CC(C)OC1=O)C1CCC(C2CCC(C(O)CCCCCCCCCCCCC3=CC(C)OC3=O)O2)O1 (centres unmarked) [Compound 12] | – | – | 2 ± 0.2 nM | –
9 | CC(=O)OC(CCCCCCCCCCCCC1=CC(C)OC1=O)C1CCC(C2CCC(C(CCCCCCCCCCCCC3=CC(C)OC3=O)OC(C)=O)O2)O1 (centres unmarked) [Compound 13] | – | – | 18 ± 2 nM | maintains its high affinity
10 | bullatacin [reference compound] | – | 0.9 ± 0.2 nM | 1.2 ± 0.2 nM | –
